Measurements as given in ChEMBL document CHEMBL5537151, “Design, synthesis and bioactivity evaluation of novel fusion peptides and their CPT conjugates inducing effective anti-tumor responses on HER2 positive tumors” (Eur J Med Chem, 2024).
Active and inactive are the calls of the source. No cut-off for these calls is given here.

Columns and labels:
SK-BR-3 [1] = experiment: Induction of apoptosis in human SK-BR-3 cells assessed as live cells at 1 uM incubated for 24 hrs by Annexin V-FITC/PI staining based flow cytometry analysis (reference value: 94.6%); format: functional
SK-BR-3 [2] = experiment: Induction of apoptosis in human SK-BR-3 cells assessed as early apoptotic cells at 1 uM incubated for 24 hrs by Annexin V-FITC/PI staining based flow cytometry analysis (reference value: 2.80%); format: functional
SK-BR-3 [3] = experiment: Induction of apoptosis in human SK-BR-3 cells assessed as late apoptotic cells at 1 uM incubated for 24 hrs by Annexin V-FITC/PI staining based flow cytometry analysis (reference value: 1.11%); format: functional
SK-BR-3 [4] = experiment: Induction of apoptosis in human SK-BR-3 cells assessed as necrotic cells at 1 uM incubated for 24 hrs by Annexin V-FITC/PI staining based flow cytometry analysis (reference value: 1.49%); format: functional
SK-BR-3 [5] = experiment: Induction of apoptosis in human SK-BR-3 cells assessed as live cells at 1 uM incubated for 24 hrs in presence of SMAC peptide by Annexin V-FITC/PI staining based flow cytometry analysis (reference value: 94.6%); format: functional
SK-BR-3 [6] = experiment: Induction of apoptosis in human SK-BR-3 cells assessed as early apoptotic cells at 1 uM incubated for 24 hrs in presence of SMAC peptide by Annexin V-FITC/PI staining based flow cytometry analysis (reference value: 2.80%); format: functional
SK-BR-3 [7] = experiment: Induction of apoptosis in human SK-BR-3 cells assessed as late apoptotic cells at 1 uM incubated for 24 hrs in presence of SMAC peptide by Annexin V-FITC/PI staining based flow cytometry analysis (reference value: 1.11%); format: functional
SK-BR-3 [8] = experiment: Induction of apoptosis in human SK-BR-3 cells assessed as necrotic cells at 1 uM incubated for 24 hrs in presence of SMAC peptide by Annexin V-FITC/PI staining based flow cytometry analysis (reference value: 1.49%); format: functional
SK-BR-3 [9] = experiment: Induction of apoptosis in human SK-BR-3 cells assessed as downregulation of XIAP protein expression incubated for 24 hrs by Western blot analysis; format: functional, cell-based
SK-BR-3 [10] = experiment: Induction of apoptosis in human SK-BR-3 cells assessed as downregulation of XIAP protein expression incubated for 24 hrs in presence of SMAC peptide by Western blot analysis; format: functional, cell-based
SK-BR-3 [11] = experiment: Induction of apoptosis in human SK-BR-3 cells assessed as downregulation of cIAP1 protein expression incubated for 24 hrs by Western blot analysis; format: functional, cell-based
SK-BR-3 [12] = experiment: Induction of apoptosis in human SK-BR-3 cells assessed as downregulation of cIAP1 protein expression incubated for 24 hrs in presence of SMAC peptide by Western blot analysis; format: functional, cell-based
SK-BR-3 [13] = experiment: Antitumor activity against human SK-BR-3 cells xenografted in nude mouse assessed as inhibition of tumor growth at 8 umol/kg, iv administered every 3 days for 14 days and measured every 2 days by vernier caliper analysis; format: functional, organism-based; details: dose 8.0 µmol/kg, time 14.0 day
SK-BR-3 [14] = experiment: Antitumor activity against human SK-BR-3 cells xenografted in nude mouse assessed as inhibition of tumor growth at 8 umol/kg, iv administered every 3 days for 14 days with SMAC peptide and measured every 2 days by vernier caliper analysis; format: functional, organism-based; details: dose 8.0 µmol/kg, time 14.0 day
[15] = Toxicity in nude mouse xenografted with human SK-BR-3 cells assessed as increase in ALT level at 8 umol/kg, iv administered every 3 days for 14 days; format: organism-based; details: in vivo, 336 h, dose 8 µmol/kg, time 14 day
[16] = Toxicity in nude mouse xenografted with human SK-BR-3 cells assessed as increase in ALT level at 8 umol/kg, iv administered every 3 days for 14 days in presence of SMAC peptide; format: organism-based; details: in vivo, 336 h, dose 8 µmol/kg, time 14 day
[17] = Toxicity in nude mouse xenografted with human SK-BR-3 cells assessed as increase in AST level at 8 umol/kg, iv administered every 3 days for 14 days; format: organism-based; details: in vivo, 336 h, dose 8 µmol/kg, time 14 day
[18] = Toxicity in nude mouse xenografted with human SK-BR-3 cells assessed as increase in AST level at 8 umol/kg, iv administered every 3 days for 14 days in presence of SMAC peptide; format: organism-based; details: in vivo, 336 h, dose 8 µmol/kg, time 14 day
[19] = Toxicity in nude mouse xenografted with human SK-BR-3 cells assessed as increase in blood urea nitrogen level at 8 umol/kg, iv administered every 3 days for 14 days in presence of SMAC peptide; format: organism-based; details: in vivo, 336 h, dose 8 µmol/kg, time 14 day
[20] = Toxicity in nude mouse xenografted with human SK-BR-3 cells assessed as increase in creatinine level at 8 umol/kg, iv administered every 3 days for 14 days in presence of SMAC peptide; format: organism-based; details: in vivo, 336 h, dose 8 µmol/kg, time 14 day
[21] = Toxicity in nude mouse xenografted with human SK-BR-3 cells assessed as change in alkaline phosphatase level at 8 umol/kg, iv administered every 3 days for 14 days; format: organism-based; details: in vivo, 336 h, dose 8 µmol/kg, time 14 day
[22] = Toxicity in nude mouse xenografted with human SK-BR-3 cells assessed as change in alkaline phosphatase level at 8 umol/kg, iv administered every 3 days for 14 days in presence of SMAC peptide; format: organism-based; details: in vivo, 336 h, dose 8 µmol/kg, time 14 day
[23] = Toxicity in nude mouse xenografted with human SK-BR-3 cells assessed as change in total protein level at 8 umol/kg, iv administered every 3 days for 14 days; format: organism-based; details: in vivo, 336 h, dose 8 µmol/kg, time 14 day
[24] = Toxicity in nude mouse xenografted with human SK-BR-3 cells assessed as change in total protein level at 8 umol/kg, iv administered every 3 days for 14 days in presence of SMAC peptide; format: organism-based; details: in vivo, 336 h, dose 8 µmol/kg, time 14 day
[25] = Toxicity in nude mouse xenografted with human SK-BR-3 cells assessed as change in albumin level at 8 umol/kg, iv administered every 3 days for 14 days; format: organism-based; details: in vivo, 336 h, dose 8 µmol/kg, time 14 day
[26] = Toxicity in nude mouse xenografted with human SK-BR-3 cells assessed as change in albumin level at 8 umol/kg, iv administered every 3 days for 14 days in presence of SMAC peptide; format: organism-based; details: in vivo, 336 h, dose 8 µmol/kg, time 14 day
[27] = Toxicity in nude mouse xenografted with human SK-BR-3 cells assessed as change in globulin level at 8 umol/kg, iv administered every 3 days for 14 days; format: organism-based; details: in vivo, 336 h, dose 8 µmol/kg, time 14 day
[28] = Toxicity in nude mouse xenografted with human SK-BR-3 cells assessed as change in globulin level at 8 umol/kg, iv administered every 3 days for 14 days in presence of SMAC peptide; format: organism-based; details: in vivo, 336 h, dose 8 µmol/kg, time 14 day

**Q.** For `CCC1(OC(=O)OCCSSC[C@@H](N)C(=O)N[C@@H](CC(N)=O)C(=O)N2CCC[C@H]2C(=O)N[C@@H](CC(N)=O)C(=O)N[C@@H](Cc2c[nH]c3ccccc23)C(=O)NCC(=O)N[C@@H](CCCNC(=N)N)C(=O)N[C@@H](CO)C(=O)N[C@@H](Cc2c[nH]c3ccccc23)C(=O)N[C@@H](Cc2ccc(O)cc2)C(=O)N[C@@H](CC(N)=O)C(=O)N[C@@H](CCC(N)=O)C(=O)N[C@@H](CCCNC(=N)N)C(=O)N[C@@H](Cc2ccccc2)C(=O)N[C@@H](CCCCN)C(=O)N[C@@H](CCCCN)C(N)=O)C(=O)OCc2c1cc1n(c2=O)Cc2cc3ccccc3nc2-1` (stereo partly drawn), which Activity (SK-BR-3 [1]) is on record?
**A.** 78.8%

**Q.** What about the Activity (SK-BR-3 [2]) of the same compound?
**A.** 15.1%

**Q.** And the Activity (SK-BR-3 [3])?
**A.** 4.89%

**Q.** What about the Activity (SK-BR-3 [4]) of the same compound?
**A.** 1.23%

**Q.** What about the Activity (SK-BR-3 [5]) of the same compound?
**A.** 74.9%

**Q.** What about the Activity (SK-BR-3 [6]) of the same compound?
**A.** 16.8%

**Q.** What about the Activity (SK-BR-3 [7]) of the same compound?
**A.** 6.9%

**Q.** What about the Activity (SK-BR-3 [8]) of the same compound?
**A.** 1.34%

**Q.** And the Activity (SK-BR-3 [9])?
**A.** Active

**Q.** What about the Activity (SK-BR-3 [10]) of the same compound?
**A.** Active

**Q.** What about the Activity (SK-BR-3 [11]) of the same compound?
**A.** inactive

**Q.** What about the Activity (SK-BR-3 [12]) of the same compound?
**A.** inactive

**Q.** What about the Activity (SK-BR-3 [13]) of the same compound?
**A.** Active

**Q.** What about the Activity (SK-BR-3 [14]) of the same compound?
**A.** Active

**Q.** What about the Activity [15] of the same compound?
**A.** Toxic

**Q.** What about the Activity [16] of the same compound?
**A.** Toxic

**Q.** And the Activity [17]?
**A.** Toxic

**Q.** And the Activity [18]?
**A.** Toxic

**Q.** And the Activity [19]?
**A.** Toxic

**Q.** What about the Activity [20] of the same compound?
**A.** Toxic

**Q.** What about the Activity [21] of the same compound?
**A.** Non-Toxic

**Q.** And the Activity [22]?
**A.** Non-Toxic

**Q.** What about the Activity [23] of the same compound?
**A.** Non-Toxic

**Q.** And the Activity [24]?
**A.** Non-Toxic

**Q.** What about the Activity [25] of the same compound?
**A.** Non-Toxic

**Q.** What about the Activity [26] of the same compound?
**A.** Non-Toxic

**Q.** And the Activity [27]?
**A.** Non-Toxic

**Q.** And the Activity [28]?
**A.** Non-Toxic
